What was measured:
NSCLC cell line Calu-3 = assay: Orthotopic nude rat model for lung cancer, in vivo efficacy study; conditions: each with cisplatin IP 3 mg/kg, 1.5 mg/kg deposited INH vs 15 mg/kg IP, 8 weeks
Method: NSCLC cell line Calu-3 was instilled into the lungs of X-irradiated rats by an intratracheal route, targeting 1.5×10^7 cells per installation. For the first four weeks of the study, no treatment was administered, allowing growth of the tumor cells. Inhaled bevacizumab SDD was evaluated as a primary treatment as well as a maintenance therapy.
Cisplatin was administered by IP at 3 mg/kg. Powder was aerosolized using a rotating brush generator and delivered to the rats passively through nasal inhalation. […] Groups 1-4 were evaluated for primary efficacy after 8 weeks with lung weight as the end point. Groups 5-7 were evaluated for maintenance efficacy after 12 weeks with lung weight and survival as the end point.

[1] = solution prepared 18 hours before spray drying; cited from earlier work

Compound	tumor burden, inhaled vs IP bevacizumab (NSCLC cell line Calu-3; listed as IP bevacizumab)	tumor burden, inhaled vs IP bevacizumab (NSCLC cell line Calu-3; listed as bevacizumab delivered via IP injection)	stability in aqueous solution [1]
Bevacizumab [bevacizumab control]	indistinguishable	equal	–
N.N.[Cl][Pt][Cl] [cisplatin]	–	–	converts to transplatin
